Reference: the supplement of paper PMC10307832

How the values were obtained:
Assay in all cases: relative viability (nuclei count vs DMSO), 5 days (fraction); higher = more cells survive
[1] = compound: C1=CC2=C(C=C(C(=C2N=C1)O)N=NC3=CC4=C(C=C3)C=C(C=C4)S(=O)(=O)O)S(=O)(=O)O + O=C(c1cc(Cc2n[nH]c(=O)c3ccccc23)ccc1F)N1CCN(C(=O)C2CC2)CC1 [Olaparib] (partner 8 µM)
In short: (§1)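 Relative viability was taken as the ratio of nuclei in treated wells to nuclei in vehicle wells. Lung cancer cell lines in 1536-well plates received compounds by pin tool one day after seeding, either one drug alone or a fixed anchor-drug dose plus five library-drug doses (not always all listed) in √10 steps. Nuclei were counted on 4× images after 5 days of treatment, and values are medians of duplicate plates.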

[2] = compound: O=C(NC1CCNCC1)c1n[nH]cc1NC(=O)c1c(Cl)cccc1Cl [AT-7519] + C[C@@H](Oc1cc(-c2cnn(C3CCNCC3)c2)cnc1N)c1c(Cl)ccc(F)c1Cl [Crizotinib] (partner 1 µM)
In short: as §1

[3] = compound: O=C(NC1CCNCC1)c1n[nH]cc1NC(=O)c1c(Cl)cccc1Cl [AT-7519] + CC(=O)Nc1cccc(-n2c(=O)n(C3CC3)c(=O)c3c(Nc4ccc(I)cc4F)n(C)c(=O)c(C)c32)c1 [Trametinib] (partner 0.02 µM)
In short: as §1

[4] = compound: O=C(NC1CCNCC1)c1n[nH]cc1NC(=O)c1c(Cl)cccc1Cl [AT-7519] + COc1cccc2cc(-c3nc([C@H]4CC[C@H](C(=O)O)CC4)n4ncnc(N)c34)[nH]c12 [OSI-027] (partner 0.5 µM)
In short: as §1

Cell Line	relative viability ([1]; first compound 0.08 µM)	relative viability ([1]; first compound 0.253 µM)	relative viability ([1]; first compound 0.8 µM)	relative viability ([1]; first compound 2.53 µM)	relative viability ([1]; first compound 8 µM)	relative viability ([2]; first compound 0.01 µM)	relative viability ([2]; first compound 0.03162 µM)	relative viability ([2]; first compound 0.3162 µM)	relative viability ([2]; first compound 1 µM)	relative viability ([3]; first compound 0.01 µM)	relative viability ([3]; first compound 0.03162 µM)	relative viability ([3]; first compound 0.3162 µM)	relative viability ([3]; first compound 1 µM)	relative viability ([4]; first compound 0.01 µM)	relative viability ([4]; first compound 0.03162 µM)	relative viability ([4]; first compound 0.3162 µM)	relative viability ([4]; first compound 1 µM)
NCI-H2087	0.688	0.651	0.622	0.563	0.601	0.801	0.868	0.894	0.171	0.241	0.187	0.135	0.119	0.729	0.649	0.493	0.151
BEN	0.868	1.13	1.05	1.27	0.974	0.897	0.754	0.985	0.83	0.99	1.04	0.885	1.11	0.541	0.278	0.55	0.412
LCLC-103H	0.774	0.721	0.735	0.779	0.753	1.05	1.08	0.999	1.27	0.686	0.682	0.72	0.587	0.455	0.479	0.46	0.456
EKVX	1.02	0.77	0.904	0.822	0.955	0.933	0.85	0.699	0.894	0.326	0.312	0.525	0.3	0.725	0.536	0.687	0.709
LXF-289	1.26	1	0.973	1.05	1.03	0.838	0.898	0.811	0.816	0.7	0.638	0.657	0.493	0.758	0.666	0.706	0.737
NCI-H650	0.458	0.404	0.386	0.384	0.402	0.788	0.797	0.733	0.625	1.02	0.924	1.04	0.348	0.529	0.496	0.498	0.711
NCI-H1650	0.825	0.677	0.781	0.812	0.894	1.26	0.956	0.576	0.169	0.634	0.538	0.449	0.223	0.779	0.598	0.46	0.181
NCI-H2085	0.866	0.757	0.811	0.757	0.722	0.762	0.832	0.696	0.553	0.468	0.585	0.595	0.367	0.739	0.662	0.626	0.651
LC-2-ad	0.72	0.671	0.749	0.683	0.744	0.465	0.467	0.499	0.234	0.892	0.936	0.933	0.506	0.733	0.866	0.862	0.514
COR-L 105	0.676	0.62	0.732	0.701	0.83	0.823	0.784	0.469	0.289	0.438	0.382	0.427	0.296	0.6	0.58	0.674	0.401
NCI-H1355	0.736	0.717	0.748	0.728	0.711	1.1	1.02	1.13	0.943	0.482	0.416	0.48	0.298	0.407	0.471	0.374	0.374
H3255	0.6	0.571	0.551	0.638	0.587	0.942	0.838	0.849	0.756	0.53	0.546	0.715	0.574	0.572	0.517	0.591	0.508
NCI-H1993	1.03	0.931	1.18	1.09	1.1	0.846	0.82	0.813	0.577	0.445	0.496	0.474	0.453	0.569	0.494	0.49	0.563
NCI-H1734	0.609	0.588	0.697	0.642	0.624	0.662	0.724	0.544	0.305	0.644	0.629	0.618	0.31	0.521	0.543	0.445	0.397
HOP-62	0.403	0.376	0.312	0.465	0.516	0.893	0.966	0.675	0.889	0.344	0.347	0.401	0.176	0.857	0.675	0.846	0.809
LOU-NH91	1.01	0.907	0.927	0.881	0.919	0.73	0.742	0.766	0.711	0.805	0.774	0.792	0.726	0.738	0.742	0.72	0.711
ChaGo-K-1	0.445	0.405	0.438	0.422	0.341	1.08	1.12	0.792	0.743	0.949	0.884	0.936	0.795	0.642	0.556	0.457	0.447
NCI-H2228	0.779	0.772	0.658	0.851	0.751	0.549	0.379	0.403	0.313	0.441	0.426	0.421	0.247	0.517	0.586	0.469	0.446
PC-14	0.249	0.275	0.29	0.272	0.246	0.755	0.911	0.818	0.811	0.681	0.771	0.545	0.0618	0.725	0.701	0.691	0.125

Cell Line	relative viability ([1]; first compound 0.08 µM)	relative viability ([1]; first compound 0.253 µM)	relative viability ([1]; first compound 0.8 µM)	relative viability ([1]; first compound 2.53 µM)	relative viability ([1]; first compound 8 µM)	relative viability ([2]; first compound 0.01 µM)	relative viability ([2]; first compound 0.03162 µM)	relative viability ([2]; first compound 0.3162 µM)	relative viability ([2]; first compound 1 µM)	relative viability ([3]; first compound 0.01 µM)	relative viability ([3]; first compound 0.03162 µM)	relative viability ([3]; first compound 0.3162 µM)	relative viability ([3]; first compound 1 µM)	relative viability ([4]; first compound 0.01 µM)	relative viability ([4]; first compound 0.03162 µM)	relative viability ([4]; first compound 0.3162 µM)	relative viability ([4]; first compound 1 µM)
NCI-H1437	0.617	0.611	0.655	0.638	0.613	0.93	1.06	0.9	0.361	0.532	0.503	0.507	0.214	0.755	0.938	0.824	0.645
NCI-H460	0.537	0.356	0.444	0.43	0.425	0.858	0.9	0.608	0.0144	0.193	0.155	0.129	0.0266	0.906	0.686	0.288	0.0567
NCI-H1666	0.863	0.754	0.762	0.745	0.712	0.902	0.972	0.726	0.604	0.871	0.842	0.811	0.593	0.825	0.82	0.838	0.652
NCI-H1651	0.187	0.176	0.196	0.208	0.181	0.858	0.846	0.909	0.847	0.765	0.781	0.871	0.828	0.764	0.734	0.598	0.59
NCI-H1755	0.913	0.864	0.831	0.964	0.874	0.837	1.03	0.935	0.688	0.834	0.768	0.787	0.469	0.66	0.655	0.705	0.699
NCI-H661	0.744	0.744	0.831	0.761	0.72	0.978	1.22	1.16	1.04	0.549	0.565	0.508	0.203	0.671	0.694	0.564	0.333
HARA	0.959	0.797	0.697	0.741	0.764	1.03	1.1	0.974	0.786	0.805	0.551	0.796	0.313	0.425	0.36	0.523	0.423
NCI-H596	0.7	0.798	0.639	0.746	0.747	0.828	0.962	1.05	0.87	0.86	0.811	0.662	0.662	0.723	0.628	0.644	0.754
NCI-H23	0.27	0.339	0.343	0.324	0.359	0.544	0.446	0.543	0.318	0.338	0.355	0.33	0.164	0.475	0.521	0.664	0.396
LCLC-97TM1	0.41	0.38	0.432	0.338	0.32	0.334	0.254	0.328	0.191	0.175	0.173	0.224	0.117	0.566	0.616	0.422	0.21
EPLC-272H	0.855	0.683	0.722	1	0.808	0.896	0.918	0.809	0.934	0.309	0.312	0.275	0.22	0.283	0.296	0.264	0.206
NCI-H1915	0.25	0.286	0.256	0.258	0.258	0.933	0.926	0.793	0.741	0.58	0.304	0.316	0.118	0.406	0.598	0.521	0.394
NCI-H2405	0.85	0.888	0.816	0.898	0.845	0.794	0.847	0.827	0.598	0.664	0.643	0.61	0.299	0.593	0.655	0.595	0.478
NCI-H322M	0.733	0.705	0.691	0.78	0.834	0.848	0.93	0.892	0.901	0.531	0.444	0.539	0.525	0.539	0.521	0.422	0.428
NCI-H2170	0.639	0.557	0.595	0.614	0.576	1.16	1.26	1.18	1.18	0.994	0.868	0.91	0.708	0.782	0.685	0.687	0.719
NCI-H358	0.656	0.555	0.551	0.57	0.569	0.544	0.544	0.458	0.0912	0.127	0.13	0.253	0.0967	0.83	0.676	0.527	0.194
NCI-H838	0.781	0.739	0.743	0.777	0.77	0.805	0.826	0.571	0.194	0.475	0.443	0.529	0.0788	0.345	0.39	0.276	0.127
CAL-12T	0.85	0.678	0.648	0.681	0.74	0.562	0.537	0.201	0.16	0.403	0.289	0.217	0.131	0.673	0.649	0.296	0.135
